Measured values from patent publication US20260137700A1, “PHARMACEUTICAL COMBINATION OF PRMT5 INHIBITOR AND DNA DAMAGE-INDUCING SUBSTANCE” (SK Biopharmaceuticals Co., Ltd., priority 2022, published 2026).

How the values were obtained:
[1] = tested on: cancer cell lines of Table 2 (A549, A549/CR, A549/PR, CAPAN-1, NCI-H1048, MDA-MB-231, Mia PaCa-2, SNU-324, OVCAR3, PA-1, PANC-1, U-87 MG); experiment: Cell viability assay (WST) with combination synergy analysis (Bliss score); assay type: cell-based, human; conditions: combination with various DNA damage inducers, FIGS. 1 to 25; culture ended on days 7 to 9
Method: Most cell lines were obtained from the American Type Culture Collection (ATCC) or the Korean Cell Line Bank (KCLB). Combination experiments in cisplatin-resistant and paclitaxel-resistant cell lines were performed at the Asan Preclinical Evaluation center for cancer therapeutiX of Asan Medical Center, Seoul. All cell lines were maintained in appropriate growth medium for the cell line in 100-pi dishes oRT75 (75 cm2) flasks, cultured at 37° C. with 5% CO2, and passaged every 3-4 days. Growth medium conditions and cell line information are listed in Table 2, and the cells were counted using Countess (Invitrogen) to obtain the number of viable cells. Mutation and HRD status by cell type are described in Table 3.
The next day, compound-87 was diluted 1/2 to 1/4 to a concentration of 20 μM to 0.002 μM and treated at a set concentration range, and the co-administered drug was diluted 1/2 to 1/3 to a concentration of 100 μM to 0.00046 μM and treated at a 1:1 (v/v) ratio. Finally, the treatment ratio of compound-87 and the co-administered substance was between 1:20000 and 1:0.00015, and in clinical practice, compound-87: drug to be co-administered can be treated at a ratio of 1:10000 to 1:0.0001.
PANC-1 (wild-type BRCA1/BRCA2) pancreatic cancer cells were treated with compound-87 at concentrations of […], and E7016, a PARP inhibitor as a co-administered agent at concentration of 0.078, 0.156, 0.313, 0.625, 1.25, 2.5, 5, or 10 μM (FIG. 25). Cell culture was terminated on days 7 to 9, and cell viability and synergistic effect were evaluated for each combination of concentrations.
Cell viability was measured by a colorimetric assay using water-soluble tetrazolium salt (WST). […]
Results are normalized to DMSO-treated groups as 100% and expressed as the percent of viable cells upon compound addition. […]
The synergy of each compound was analyzed using Combenefit software (Cambridge Research UK, Cambridge Institute, University of Cambridge, United Kingdom), and synergy was evaluated by using Blliss (Ref: Di Veroli et al., 2016, Bioinformatics 32(18):2866-2868). […]

[2] = tested on: human small cell lung cancer cells NCI-H1048; experiment: Subcutaneous xenograft mouse model of NCI-H1048 small cell lung cancer cells, tumor growth inhibition; assay type: in vivo; conditions: day 23
Method: (§1) For in vivo efficacy study in a subcutaneous xenograft mouse model of human small cell lung cancer cells NCI-H1048, co-administration of compound-87 as a PRMT5 inhibitor according to an example of the present invention and cisplatin as an alkylating agent of a chemotherapeutic agent, was performed. To produce a small cell lung cancer xenograft model, 10 million of NCI-H1048 cells were injected subcutaneously into the right flank of female nude mice, and tumor growth was monitored.
To evaluate the anticancer effect, when the tumor volume reached approximately 162 mm^3 on average, the mice were divided into four groups. The all group included a solvent-treated group (Vehicle 1 (Compound-87)+Vehicle 2 (cisplatin) group), a Compound-87 monotherapy group (50 mg/kg), a cisplatin monotherapy group (4 mg/kg), and combination therapy group of Compound-87 and cisplatin. The Compound-87 treatment group was administered orally on a 3-day administration/4-day non-administration schedule, and cisplatin was administered intraperitoneally once a week for 22 days (Day 1-Day 23). All mice were euthanized on Day 22 (Day 23).

[3] = tested on: human pancreatic cancer cells Mia PaCa-2; experiment: Subcutaneous xenograft mouse model of Mia PaCa-2 pancreatic cancer cells, tumor growth inhibition; assay type: in vivo; conditions: day 24
Method: as §1, with “pancreatic” for “small cell lung”, “Mia PaCa-2,” for “NCI-H1048,”, “Gemcitabine” for “cisplatin”, “anti-metabolite” for “alkylating agent”, “5” for “10”, “Mia PaCa-2” for “of NCI-H1048”
To evaluate the anticancer effect, mice were divided into six groups when the tumor volume reached approximately 150 mm^3 on average. […] The solvent-treated group (vehicle group) or the compound-87 treatment group was administered orally on a 3-day administration/4-day non-administration schedule, and gemcitabine was administered intraperitoneally twice a week for 24 days (Day 0-Day 23). All mice were euthanized on Day 24, 24 hours after the last administration.

[4] = tested on: DNA damage repair genes; experiment: Gene expression analysis in patient-derived xenograft mice (CTG-2534); assay type: in vivo, mouse; conditions: compound-87 oral, 3-day on/4-day off; tumors taken when solvent group reached 955 mm^3
Description: In order to analyze changes in gene expression by PRMT5 inhibitor treatment according to one example of the present invention, patient-derived cells CTG-2534 were xenografted into mice subcutaneously, and then the mice were divided into groups, when the tumor volume reached 80 to 300 mm^3. The solvent-treated group (vehicle group) or the compound-87 treatment group was orally administered on a 3-day on/4-day off schedule. When the tumor volume of the solvent-treated group reached 955 mm^3, the tumors were separated and performed for gene expression analysis.
FIG. 30 is a heat map showing the change in expression of DNA damage repair genes using Z-score values for Log2FPKM, after compound-87 treatment were performed in patient-derived lung cancer […] cell xenograft mice. In FIG. 30, the solvent-treated group is shown in red (positive value), and the compound-87-treated group is shown in blue (negative value).

CN1CCC(Oc2ccc3c(c2)OCCN(C[C@H](O)CN2CCc4ccccc4C2)C3=O)CC1 [Compound-87, 4-[(2R)-3-(3,4-dihydro-1H-isoquinolin-2-yl)-2-hydroxy-propyl]-8-[(1-methyl-4-piperidyl)oxy]-2,3-dihydro-1,4-benzoxazepin-5-one]
inhibition of cell viability, combination treatment compared to single agent [1]: enhanced inhibition effects of cell viability | partial response ([2]; compound-87 50 mg/kg oral combined with cisplatin 4 mg/kg i.p., partial response in all mice): 60.6% | tumor growth inhibition rate ([2]; compound-87 alone, 50 mg/kg oral, 3-day administration/4-day non-administration): 62.0% | tumor growth inhibition rate ([3]; compound-87 25 mg/kg combined with gemcitabine 60 mg/kg i.p. twice a week): 67.7% | tumor growth inhibition rate ([3]; compound-87 25 mg/kg monotherapy, oral, 3 days on/4 off): 42.6% | tumor growth inhibition rate ([3]; compound-87 50 mg/kg combined with gemcitabine 60 mg/kg i.p. twice a week): 77.0% | tumor growth inhibition rate ([3]; compound-87 50 mg/kg monotherapy, oral, 3 days on/4 off): 56.0% | change in expression of DNA damage repair genes (Z-score of Log2FPKM, heat map FIG. 30) [4]: reduced expression of DNA damage repair genes
